Activity calls are given as the source filed them.
Assays:
[1] = biological target: Protein disulfide-isomerase (Homo sapiens, UniProt P07237); assay: inhibition of PDI-driven insulin aggregation – biochemical, turbidity, absorbance, cherry-picked samples, dose response (AID 602350); assay type: functional
Orexin receptor type 2 [2] = biological target: T1, Orexin receptor type 2 (Homo sapiens, UniProt O43614); assay: Counterscreen assay for antagonists of the orexin 1 receptor (OX1R; HCRTR1): Homogeneous Time Resolved Fluorescence (HTRF)-based cell-based dose response assay for antagonists of the orexin 2 receptor (OX2R; HCRTR2), run by assay provider.; assay type: functional
Orexin receptor type 2 [3] = biological target: T1, Orexin receptor type 2; assay: Counterscreen assay for antagonists of the orexin 1 receptor (OX1R; HCRTR1): Fluorescence-based cell-based dose response assay for antagonists of the orexin 2 receptor (OX2R; HCRTR2), run by assay provider.; assay type: functional
CHO-K1 = assay: (§1) Counterscreen for antagonists of the orexin 1 receptor (OX1R; HCRTR1): Homogeneous time resolved fluorescence (HTRF)-based cell-based dose response assay to identify antagonists of the parental CHO-K1 cell line. [Related pubchem assays (depositor defined):AID434989, AID435008, AID463079, AID485270, AID492963, AID492964, AID492965, AID493232, AID504699, AID504701]; assay type: functional; conditions: Cricetulus griseus
[4] = as §1, with “Fluorescence-based” for “Homogeneous time resolved fluorescence (HTRF)-based”, “cell-based high throughput” for “cell-based”, “CHO” for “CHO-K1”; assay type: functional
[5] = biological target: T2, Orexin/Hypocretin receptor type 1 (Homo sapiens, UniProt O43613); assay: (§2) Fluorescence-based cell-based high throughput dose response assay for antagonists of the orexin 1 receptor (OX1R; HCRTR1). [Related pubchem assays (depositor defined):AID434989, AID435008, AID463079, AID485270, AID492963, AID492964, AID492965, AID493232, AID504717, AID504718]; assay type: functional
[6] = biological target: T2, Orexin/Hypocretin receptor type 1; assay: as §2, with “Homogeneous Time Resolved Fluorescence (HTRF)-based” for “Fluorescence-based”; assay type: functional
[7] = biological target: T3, Carboxy-terminal domain RNA polymerase II polypeptide A small phosphatase 1 (Homo sapiens, UniProt Q9GZU7); assay: CTDSP1 inhibitors, concentration-response, biochemical, absorbance readout, ultra-high-throughput screen actives (AID 540297); assay type: functional
T3 sequence (Q9GZU7 whole entry): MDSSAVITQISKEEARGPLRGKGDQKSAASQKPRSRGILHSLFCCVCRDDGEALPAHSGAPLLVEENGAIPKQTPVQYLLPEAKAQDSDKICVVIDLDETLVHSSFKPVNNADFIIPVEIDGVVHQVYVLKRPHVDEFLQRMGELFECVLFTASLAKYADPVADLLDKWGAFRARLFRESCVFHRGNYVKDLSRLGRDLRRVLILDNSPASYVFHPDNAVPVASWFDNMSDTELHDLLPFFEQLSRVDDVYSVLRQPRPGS

[8] = biological target: T4, Voltage-gated N-type calcium channel alpha-1B subunit/Amyloid beta A4 precursor protein-binding family A member 1 (Homo sapiens, UniProt Q00975+Q02410); assay type: protein assay
[9] = biological target: T5, Histone-lysine N-methyltransferase NSD2 (Homo sapiens, UniProt O96028); assay type: biochemical
T5 sequence (O96028 whole entry): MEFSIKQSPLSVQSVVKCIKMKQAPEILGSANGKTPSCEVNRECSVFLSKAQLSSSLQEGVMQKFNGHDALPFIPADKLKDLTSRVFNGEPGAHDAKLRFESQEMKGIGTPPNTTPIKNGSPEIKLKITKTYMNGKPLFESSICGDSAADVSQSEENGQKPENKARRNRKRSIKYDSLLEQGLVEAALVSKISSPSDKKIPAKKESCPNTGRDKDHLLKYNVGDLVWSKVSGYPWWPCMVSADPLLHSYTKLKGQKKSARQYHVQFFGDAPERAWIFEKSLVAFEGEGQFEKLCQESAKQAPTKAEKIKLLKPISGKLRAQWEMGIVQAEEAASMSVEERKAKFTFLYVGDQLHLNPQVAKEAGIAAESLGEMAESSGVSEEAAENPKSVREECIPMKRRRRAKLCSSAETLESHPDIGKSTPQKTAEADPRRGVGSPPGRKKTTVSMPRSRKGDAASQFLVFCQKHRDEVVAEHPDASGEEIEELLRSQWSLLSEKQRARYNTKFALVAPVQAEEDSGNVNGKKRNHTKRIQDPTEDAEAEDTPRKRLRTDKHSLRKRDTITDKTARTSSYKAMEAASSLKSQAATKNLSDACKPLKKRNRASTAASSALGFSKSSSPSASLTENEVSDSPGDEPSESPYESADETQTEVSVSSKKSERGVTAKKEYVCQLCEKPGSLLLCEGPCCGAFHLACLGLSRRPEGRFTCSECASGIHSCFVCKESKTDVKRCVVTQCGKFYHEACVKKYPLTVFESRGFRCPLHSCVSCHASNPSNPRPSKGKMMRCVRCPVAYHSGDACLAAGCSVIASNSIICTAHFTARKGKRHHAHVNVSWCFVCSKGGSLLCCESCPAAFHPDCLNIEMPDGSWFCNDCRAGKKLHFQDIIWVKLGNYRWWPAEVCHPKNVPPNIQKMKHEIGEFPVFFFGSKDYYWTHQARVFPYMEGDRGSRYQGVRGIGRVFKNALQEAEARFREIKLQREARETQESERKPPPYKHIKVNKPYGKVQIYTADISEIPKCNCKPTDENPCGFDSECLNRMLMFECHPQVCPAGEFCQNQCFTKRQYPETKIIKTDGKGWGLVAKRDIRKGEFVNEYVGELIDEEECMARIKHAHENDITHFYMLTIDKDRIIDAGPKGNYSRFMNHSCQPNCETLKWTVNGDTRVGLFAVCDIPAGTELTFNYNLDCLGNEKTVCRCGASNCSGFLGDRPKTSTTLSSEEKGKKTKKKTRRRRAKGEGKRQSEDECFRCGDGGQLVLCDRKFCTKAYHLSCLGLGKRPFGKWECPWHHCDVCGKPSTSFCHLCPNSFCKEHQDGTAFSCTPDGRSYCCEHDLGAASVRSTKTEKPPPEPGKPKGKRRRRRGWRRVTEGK

[10] = cAMP pathway inhibition in counterscreen cell line – TR-FRET cAMP detection, counter-screen for MC4R biased antagonist project, dose response (AID 602305); assay type: functional, cell-based;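 note: U2OS cells stimulated with forskolin near its EC80 as the cAMP inducer; potency is for inhibition of forskolin-stimulated cAMP signaling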
Melanocortin receptor 4 = Melanocortin receptor 4 (Homo sapiens, UniProt P32245); assay: inhibitors of MC4R cAMP signaling – cell-based, TR-FRET, biased antagonists, dose response (AID 602298); assay type: functional;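 note: antagonist potency against agonist-stimulated cAMP production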
[11] = biological target: T4, Voltage-gated N-type calcium channel alpha-1B subunit/Amyloid beta A4 precursor protein-binding family A member 1; assay type: protein assay; remark: listed apart in the source
[12] = biological target: Neurotensin receptor type 1 (Homo sapiens, UniProt P30989); assay type: functional;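 note: Image-based confirmatory dose-response assay measuring agonist activity at NTR1; NTR1-expressing U2OS osteosarcoma cells imaged for beta-arrestin GFP spot formation; agonist potency where compounds increase beta-arrestin recruitment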
[13] = Vero cell cytotoxicity, cytotoxicity control for M. tuberculosis inhibitor project, purified and synthesized samples, set 3 (AID 504684); assay type: functional
[14] = THP-1 cell cytotoxicity, cytotoxicity control, set 4 (AID 504911); assay type: functional; conditions: Mycobacterium tuberculosis
[15] = THP-1 cell cytotoxicity, dose response, cytotoxicity control, set 3 (AID 504852); assay type: functional; conditions: Mycobacterium tuberculosis
[16] = Vero cell cytotoxicity, dose response, cytotoxicity control for M. tuberculosis growth inhibitor project, Vero cells, purified and synthesized compounds, set 4 (AID 504854); assay type: functional; conditions: Mycobacterium tuberculosis
[17] = A Cell Based Secondary Assay to Explore Cytotoxicity in HepG2 Cells of Compounds that Modulate Mycobacterium tuberculosis in Media Containing Glycerol versus Media without Glycerol (2).; assay type: functional
[18] = biological target: cAMP-dependent protein kinase catalytic subunit alpha (Homo sapiens, UniProt P17612); assay type: functional
[19] = biological target: Cell division cycle 7-related protein kinase (Homo sapiens, UniProt O00311); assay type: functional;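 note: value obtained from a kinome-wide kinase panel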
[20] = biological target: Glycogen synthase kinase-3 beta (Homo sapiens, UniProt P49841); assay type: functional;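 note: value comes from a broad kinome profiling panel, with GSK3B as the panel member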
[21] = biological target: Serine/threonine-protein kinase pim-1 (Homo sapiens, UniProt P11309); assay type: functional
[22] = biological target: Mitogen-activated protein kinase kinase kinase kinase 4 (Homo sapiens, UniProt O95819); assay type: functional
[23] = biological target: Homeodomain-interacting protein kinase 2 (Homo sapiens, UniProt Q9H2X6); assay type: functional;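 note: measured within a kinome-wide kinase profiling panel, HIPK2 being one panel member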
[24] = biological target: Interleukin-1 receptor-associated kinase 4 (Homo sapiens, UniProt Q9NWZ3); assay type: functional
[25] = biological target: Dual specificity protein kinase CLK4 (Homo sapiens, UniProt Q9HAZ1); assay type: functional
[26] = biological target: T6, Neuropeptides B/W receptor type 1 (Homo sapiens, UniProt P48145); assay: human NPBW1 receptor blockade, IC50 – cell-based, fluorescence, dose response, set 5, late-stage follow-up (AID 588566); assay type: functional
T6 sequence (P48145 whole entry): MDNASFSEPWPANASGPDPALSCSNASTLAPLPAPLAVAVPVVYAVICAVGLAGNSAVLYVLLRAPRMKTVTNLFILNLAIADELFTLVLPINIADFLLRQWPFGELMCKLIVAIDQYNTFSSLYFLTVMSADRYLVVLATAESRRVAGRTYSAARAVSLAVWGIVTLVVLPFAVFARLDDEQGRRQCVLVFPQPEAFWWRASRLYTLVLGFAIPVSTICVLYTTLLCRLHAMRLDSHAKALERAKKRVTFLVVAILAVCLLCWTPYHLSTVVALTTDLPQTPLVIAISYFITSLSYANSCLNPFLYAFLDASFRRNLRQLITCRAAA

[27] = biological target: Melanin-concentrating hormone receptor 1 (Homo sapiens, UniProt Q99705); assay: Late-stage fluorescence-based counterscreen for antagonists of the G-protein coupled receptor 7 (GPR7): cell-based dose response assay to identify antagonists of the melanin-concentrating hormone receptor 1 (MCHR1) Set 5.; assay type: functional
[28] = SAR analysis of small molecule activators of Apaf-1 using a LZ-Caspase-9/Caspase-3 Fluorescent Selectivity assay - Set 2.; assay type: functional; conditions: read-out: EC50_Mean
[29] = biological target: T7, Apoptotic protease-activating factor 1 (Homo sapiens, UniProt O14727); assay: SAR analysis of small molecule Activators of Apaf-1 in a Fluorescent assay - set 2.; assay type: functional; conditions: read-out: EC50_Mean
T7 sequence (O14727 whole entry): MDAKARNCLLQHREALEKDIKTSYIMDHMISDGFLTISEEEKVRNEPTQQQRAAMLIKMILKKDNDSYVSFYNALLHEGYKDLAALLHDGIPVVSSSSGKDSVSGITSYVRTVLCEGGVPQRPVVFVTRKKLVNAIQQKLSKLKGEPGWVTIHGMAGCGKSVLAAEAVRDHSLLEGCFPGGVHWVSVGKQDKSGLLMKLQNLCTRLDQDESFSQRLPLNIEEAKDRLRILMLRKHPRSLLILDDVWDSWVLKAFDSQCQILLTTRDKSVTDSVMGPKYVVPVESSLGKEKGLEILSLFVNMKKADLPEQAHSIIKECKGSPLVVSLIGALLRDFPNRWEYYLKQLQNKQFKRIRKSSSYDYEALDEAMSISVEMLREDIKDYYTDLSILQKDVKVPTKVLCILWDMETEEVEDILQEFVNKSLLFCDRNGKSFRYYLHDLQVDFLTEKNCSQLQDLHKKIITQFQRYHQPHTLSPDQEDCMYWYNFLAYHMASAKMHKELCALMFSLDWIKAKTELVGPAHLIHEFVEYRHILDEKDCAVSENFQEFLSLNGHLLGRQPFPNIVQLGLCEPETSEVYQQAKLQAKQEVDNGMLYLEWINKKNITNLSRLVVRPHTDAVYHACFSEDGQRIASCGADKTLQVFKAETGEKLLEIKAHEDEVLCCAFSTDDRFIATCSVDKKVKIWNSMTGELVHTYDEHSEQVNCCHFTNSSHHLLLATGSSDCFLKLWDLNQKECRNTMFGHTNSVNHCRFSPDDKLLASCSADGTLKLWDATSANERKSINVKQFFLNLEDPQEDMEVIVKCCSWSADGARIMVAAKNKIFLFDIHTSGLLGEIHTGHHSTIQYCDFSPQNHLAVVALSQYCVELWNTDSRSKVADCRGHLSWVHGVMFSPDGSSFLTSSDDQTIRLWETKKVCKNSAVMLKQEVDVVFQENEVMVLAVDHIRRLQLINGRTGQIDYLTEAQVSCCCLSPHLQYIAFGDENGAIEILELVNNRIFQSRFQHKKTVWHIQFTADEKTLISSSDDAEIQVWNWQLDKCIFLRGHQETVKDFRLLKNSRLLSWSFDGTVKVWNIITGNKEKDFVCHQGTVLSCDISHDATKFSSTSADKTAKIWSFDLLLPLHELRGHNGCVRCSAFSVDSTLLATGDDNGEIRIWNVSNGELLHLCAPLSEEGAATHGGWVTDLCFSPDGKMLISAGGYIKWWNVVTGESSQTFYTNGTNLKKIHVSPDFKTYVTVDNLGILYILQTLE

T4 sequence (Q00975 whole entry): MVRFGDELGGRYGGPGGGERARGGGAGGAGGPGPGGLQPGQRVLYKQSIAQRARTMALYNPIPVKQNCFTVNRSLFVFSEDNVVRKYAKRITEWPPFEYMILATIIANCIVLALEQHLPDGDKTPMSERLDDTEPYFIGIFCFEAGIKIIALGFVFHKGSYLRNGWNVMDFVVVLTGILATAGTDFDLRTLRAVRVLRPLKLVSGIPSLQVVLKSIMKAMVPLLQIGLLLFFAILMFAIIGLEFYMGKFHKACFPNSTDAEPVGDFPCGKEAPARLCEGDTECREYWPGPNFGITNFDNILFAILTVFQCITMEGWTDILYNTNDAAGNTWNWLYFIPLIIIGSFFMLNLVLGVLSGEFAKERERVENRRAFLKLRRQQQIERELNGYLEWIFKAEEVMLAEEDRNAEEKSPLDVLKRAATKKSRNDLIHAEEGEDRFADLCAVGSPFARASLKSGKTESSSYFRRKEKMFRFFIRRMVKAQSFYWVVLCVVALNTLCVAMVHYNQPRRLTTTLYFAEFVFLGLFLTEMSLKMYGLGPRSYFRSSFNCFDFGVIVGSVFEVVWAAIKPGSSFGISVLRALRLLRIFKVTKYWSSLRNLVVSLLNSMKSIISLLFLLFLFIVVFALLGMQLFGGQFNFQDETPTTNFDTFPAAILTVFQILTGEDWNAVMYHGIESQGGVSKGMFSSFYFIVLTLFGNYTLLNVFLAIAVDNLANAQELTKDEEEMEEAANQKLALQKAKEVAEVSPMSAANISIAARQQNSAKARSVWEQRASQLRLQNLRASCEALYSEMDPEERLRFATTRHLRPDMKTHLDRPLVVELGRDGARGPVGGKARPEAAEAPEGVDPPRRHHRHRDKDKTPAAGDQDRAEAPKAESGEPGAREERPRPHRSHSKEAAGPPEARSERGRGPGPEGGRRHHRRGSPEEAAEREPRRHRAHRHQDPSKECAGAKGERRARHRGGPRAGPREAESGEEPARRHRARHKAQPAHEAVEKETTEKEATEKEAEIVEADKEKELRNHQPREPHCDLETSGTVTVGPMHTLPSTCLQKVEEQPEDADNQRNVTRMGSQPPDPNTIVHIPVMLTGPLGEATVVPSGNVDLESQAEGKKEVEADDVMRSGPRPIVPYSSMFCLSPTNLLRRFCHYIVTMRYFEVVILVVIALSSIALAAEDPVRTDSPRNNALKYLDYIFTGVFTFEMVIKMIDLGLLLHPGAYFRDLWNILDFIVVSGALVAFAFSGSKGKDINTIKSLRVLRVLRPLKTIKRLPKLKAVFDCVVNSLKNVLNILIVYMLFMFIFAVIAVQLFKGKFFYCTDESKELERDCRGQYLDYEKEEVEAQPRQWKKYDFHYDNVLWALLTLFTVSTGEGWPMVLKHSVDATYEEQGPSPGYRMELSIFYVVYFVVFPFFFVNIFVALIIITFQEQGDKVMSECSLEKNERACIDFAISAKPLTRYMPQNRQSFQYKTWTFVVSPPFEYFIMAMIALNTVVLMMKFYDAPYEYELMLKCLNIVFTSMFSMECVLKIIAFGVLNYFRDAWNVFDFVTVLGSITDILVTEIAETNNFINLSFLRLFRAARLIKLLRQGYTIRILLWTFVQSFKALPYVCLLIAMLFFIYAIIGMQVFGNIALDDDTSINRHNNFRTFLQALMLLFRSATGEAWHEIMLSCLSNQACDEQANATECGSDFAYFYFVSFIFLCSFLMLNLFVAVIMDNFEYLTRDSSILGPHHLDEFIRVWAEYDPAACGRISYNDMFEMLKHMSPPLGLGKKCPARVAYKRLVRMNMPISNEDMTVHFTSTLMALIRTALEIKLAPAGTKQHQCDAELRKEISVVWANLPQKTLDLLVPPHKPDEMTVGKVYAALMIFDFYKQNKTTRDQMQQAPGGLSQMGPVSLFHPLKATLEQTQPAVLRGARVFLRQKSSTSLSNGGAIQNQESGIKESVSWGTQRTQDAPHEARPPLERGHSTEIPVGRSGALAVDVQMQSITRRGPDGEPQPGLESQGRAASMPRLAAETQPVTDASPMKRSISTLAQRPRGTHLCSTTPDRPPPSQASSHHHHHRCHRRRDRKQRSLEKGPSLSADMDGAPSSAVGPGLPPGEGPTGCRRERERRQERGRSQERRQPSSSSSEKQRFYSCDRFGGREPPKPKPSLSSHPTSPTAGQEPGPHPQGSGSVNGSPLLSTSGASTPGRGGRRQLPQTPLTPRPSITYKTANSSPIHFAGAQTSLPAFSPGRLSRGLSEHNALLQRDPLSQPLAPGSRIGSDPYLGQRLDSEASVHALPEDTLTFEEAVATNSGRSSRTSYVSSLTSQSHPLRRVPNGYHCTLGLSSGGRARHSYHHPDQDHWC
T4 sequence (Q02410 whole entry): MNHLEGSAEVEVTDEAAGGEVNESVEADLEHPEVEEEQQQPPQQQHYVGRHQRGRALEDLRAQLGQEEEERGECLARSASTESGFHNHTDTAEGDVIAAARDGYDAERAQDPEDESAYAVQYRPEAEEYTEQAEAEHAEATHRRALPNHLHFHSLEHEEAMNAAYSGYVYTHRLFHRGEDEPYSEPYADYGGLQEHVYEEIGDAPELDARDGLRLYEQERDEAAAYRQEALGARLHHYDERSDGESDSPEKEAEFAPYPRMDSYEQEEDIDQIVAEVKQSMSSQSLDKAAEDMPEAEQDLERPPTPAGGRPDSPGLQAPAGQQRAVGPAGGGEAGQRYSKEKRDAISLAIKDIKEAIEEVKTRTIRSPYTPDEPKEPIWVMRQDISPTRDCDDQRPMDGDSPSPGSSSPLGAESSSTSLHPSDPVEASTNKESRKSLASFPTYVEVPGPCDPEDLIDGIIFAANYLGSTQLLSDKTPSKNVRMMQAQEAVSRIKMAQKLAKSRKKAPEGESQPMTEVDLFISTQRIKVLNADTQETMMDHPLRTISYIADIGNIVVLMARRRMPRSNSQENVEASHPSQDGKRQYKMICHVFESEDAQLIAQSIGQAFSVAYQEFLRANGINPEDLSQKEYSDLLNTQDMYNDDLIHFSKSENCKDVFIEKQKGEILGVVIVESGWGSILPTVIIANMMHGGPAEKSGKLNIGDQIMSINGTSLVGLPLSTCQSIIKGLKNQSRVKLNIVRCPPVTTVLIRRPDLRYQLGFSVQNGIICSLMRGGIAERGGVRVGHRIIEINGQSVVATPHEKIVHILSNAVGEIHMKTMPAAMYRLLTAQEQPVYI
T2 sequence (O43613 whole entry): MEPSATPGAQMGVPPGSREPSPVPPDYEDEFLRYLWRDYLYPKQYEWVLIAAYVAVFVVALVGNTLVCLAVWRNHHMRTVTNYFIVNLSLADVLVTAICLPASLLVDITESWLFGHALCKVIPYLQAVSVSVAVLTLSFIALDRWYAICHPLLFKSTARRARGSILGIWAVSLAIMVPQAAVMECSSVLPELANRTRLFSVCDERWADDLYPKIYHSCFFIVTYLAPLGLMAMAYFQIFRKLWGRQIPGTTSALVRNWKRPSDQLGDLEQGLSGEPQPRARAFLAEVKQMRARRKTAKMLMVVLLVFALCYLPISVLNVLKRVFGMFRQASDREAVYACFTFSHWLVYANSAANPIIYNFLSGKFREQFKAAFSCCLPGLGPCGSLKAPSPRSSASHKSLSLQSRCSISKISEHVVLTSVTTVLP
T1 sequence (O43614 whole entry): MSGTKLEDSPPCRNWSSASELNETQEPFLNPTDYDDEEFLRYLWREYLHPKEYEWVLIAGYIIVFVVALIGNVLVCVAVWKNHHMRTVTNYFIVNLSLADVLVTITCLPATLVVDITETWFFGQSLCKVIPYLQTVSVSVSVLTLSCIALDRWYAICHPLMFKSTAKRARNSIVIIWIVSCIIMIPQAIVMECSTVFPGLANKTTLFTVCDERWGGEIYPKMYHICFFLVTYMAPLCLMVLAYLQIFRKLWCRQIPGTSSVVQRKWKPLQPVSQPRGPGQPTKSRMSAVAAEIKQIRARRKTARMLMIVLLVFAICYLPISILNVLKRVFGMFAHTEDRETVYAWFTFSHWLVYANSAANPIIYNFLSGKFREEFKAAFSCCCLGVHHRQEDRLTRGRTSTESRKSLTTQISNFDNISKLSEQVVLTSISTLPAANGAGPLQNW
Chain of Neurotensin receptor type 1 (P30989 whole entry): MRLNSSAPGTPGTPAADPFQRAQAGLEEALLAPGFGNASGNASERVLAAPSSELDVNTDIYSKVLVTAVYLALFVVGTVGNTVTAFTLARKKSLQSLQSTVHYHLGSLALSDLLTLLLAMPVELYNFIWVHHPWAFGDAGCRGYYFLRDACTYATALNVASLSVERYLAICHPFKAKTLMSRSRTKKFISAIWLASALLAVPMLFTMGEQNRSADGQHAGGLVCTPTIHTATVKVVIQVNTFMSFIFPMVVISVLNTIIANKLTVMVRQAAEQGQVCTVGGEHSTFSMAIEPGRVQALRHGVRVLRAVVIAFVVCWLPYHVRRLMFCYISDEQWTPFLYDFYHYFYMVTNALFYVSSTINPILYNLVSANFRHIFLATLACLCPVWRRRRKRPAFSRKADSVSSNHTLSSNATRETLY
Chain of Dual specificity protein kinase CLK4 (Q9HAZ1 whole entry): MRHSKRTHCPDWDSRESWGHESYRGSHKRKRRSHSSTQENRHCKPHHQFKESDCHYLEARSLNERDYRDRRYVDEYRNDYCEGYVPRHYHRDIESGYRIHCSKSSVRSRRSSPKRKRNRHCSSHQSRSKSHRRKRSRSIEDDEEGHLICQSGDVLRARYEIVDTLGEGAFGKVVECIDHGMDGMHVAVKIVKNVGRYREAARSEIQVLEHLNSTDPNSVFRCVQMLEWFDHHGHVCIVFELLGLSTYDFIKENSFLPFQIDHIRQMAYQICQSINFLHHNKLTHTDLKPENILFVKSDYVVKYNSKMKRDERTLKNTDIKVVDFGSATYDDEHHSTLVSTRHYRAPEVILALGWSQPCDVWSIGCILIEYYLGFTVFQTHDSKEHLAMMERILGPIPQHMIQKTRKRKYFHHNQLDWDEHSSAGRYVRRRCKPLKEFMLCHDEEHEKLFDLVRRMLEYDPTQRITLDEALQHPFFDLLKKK

Structure (SMILES): C/C=C(\C)C(=O)NCCN1C2=NC[C@H](Cc3ccc(O)cc3)N2C[C@H]1Cc1ccc(O)cc1
- AC50 [1]: 15.4 µM (active)

Structure (SMILES): Cc1ccc(/C=C2/Sc3ccccc3N(CC(=O)NCC3CCCO3)C2=O)cc1 (stereo unspecified)
- IC50 (Orexin receptor type 2 [2]): > 50 µM (inactive)
- IC50 (Orexin receptor type 2 [3]): 29.8 µM (inactive)
- IC50 (CHO-K1): > 66.2 µM (inactive)
- IC50 [4]: > 49.8 µM (inactive)
- IC50 [5]: 5.59 µM (active)
- IC50 [6]: 1.77 µM (active)

Structure (SMILES): O=C1NC(=O)C(=Cc2ccc(SC3CCCCC3)o2)C(=O)N1
- IC50 [7]: 5.67 µM (active)
- IC50 [8]: 14.5 µM (active)
- AC50 [9]: > 20 µM (inactive)
- IC50 [10]: > 64.6 µM (inactive)
- IC50 (Melanocortin receptor 4): > 21.5 µM (inactive)
- IC50 [11]: > 50 µM (inactive)
- EC50 [12]: 12.7 µM (active)

Structure (SMILES): CC1CCN(C(=O)C2CCN(c3nnc(-n4cccc4)s3)CC2)CC1
- CC50 [13]: > 100 µM (active)
- CC50 [14]: > 100 µM (active)
- CC50 [15]: > 100 µM (active)
- CC50 [16]: > 100 µM (active)
- CC50 [17]: > 50 µM (active)

Structure (SMILES): O=C1Nc2ccccc2Nc2cc(-c3ccncc3F)ccc21
- Ki [18]: 1 µM (active)
- Ki [19]: 0.00398 µM (active)
- Ki [20]: 0.158 µM (active)
- Ki [21]: > 10 µM (inactive)
- Ki [22]: 0.794 µM (active)
- Ki [23]: 0.631 µM (active)
- Ki [24]: 1.58 µM (active)
- Ki [25]: 0.0251 µM (active)

Structure (SMILES): COc1c(F)cc(Oc2c(Cl)cnn(Cc3cccc4ccccc34)c2=O)cc1Cl
- IC50 [26]: 5.05 µM (active)
- IC50 [27]: 11.2 µM (inactive)

Structure (SMILES): CC(CNC(C)c1ccccc1)C(=O)O (stereo unspecified)
- EC50 [28]: > 100 µM (inactive)
- EC50 [29]: 80.6 µM (active)

Reference: ChEMBL document CHEMBL1201862, “PubChem BioAssay data set” (2004)
